Data taken from patent US7923465B2, “Cannabinoid receptor ligands, pharmaceutical compositions containing them, and process for their preparation” (priority 2005, dated 2011).
Like-named read-outs stand apart in the source and are kept apart here.

What was measured:
[1] = molecular target: T1, CB1 (Rattus norvegicus, UniProt P20272); assay: Rat CB1 receptor binding using brain membrane, [3H]SR141716A displacement (Protocol I); parameters: CB1 receptor present in a rat brain membrane preparation; from tissue; host or cells: rat brain membrane; inhibition: dose or concentration left out as unconfirmed; details: for inhibition: 1 h
T1 sequence (P20272 whole entry): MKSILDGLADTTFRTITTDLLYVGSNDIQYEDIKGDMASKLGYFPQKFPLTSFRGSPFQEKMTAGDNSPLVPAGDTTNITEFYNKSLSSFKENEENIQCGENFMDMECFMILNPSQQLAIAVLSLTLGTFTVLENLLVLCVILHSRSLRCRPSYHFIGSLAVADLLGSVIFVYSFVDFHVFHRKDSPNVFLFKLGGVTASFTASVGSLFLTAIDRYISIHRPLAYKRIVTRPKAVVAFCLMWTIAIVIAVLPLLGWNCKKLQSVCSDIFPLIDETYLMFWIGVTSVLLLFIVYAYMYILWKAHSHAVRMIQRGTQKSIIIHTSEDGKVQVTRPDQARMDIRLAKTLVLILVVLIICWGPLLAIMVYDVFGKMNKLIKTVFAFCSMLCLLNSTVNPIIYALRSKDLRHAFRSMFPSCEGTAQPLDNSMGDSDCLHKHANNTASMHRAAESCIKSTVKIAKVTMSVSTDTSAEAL

[2] = molecular target: T2, hCB2 (Homo sapiens, UniProt P34972); assay: Agonism of CB2 receptors expressed in CHO cells, forskolin cAMP assay (Protocol IX.2); assay type: cell-based; parameters: expressed in transfected cells; host or cells: CHO (h-CB2/CHO, G418-selected)
T2 sequence (P34972 whole entry): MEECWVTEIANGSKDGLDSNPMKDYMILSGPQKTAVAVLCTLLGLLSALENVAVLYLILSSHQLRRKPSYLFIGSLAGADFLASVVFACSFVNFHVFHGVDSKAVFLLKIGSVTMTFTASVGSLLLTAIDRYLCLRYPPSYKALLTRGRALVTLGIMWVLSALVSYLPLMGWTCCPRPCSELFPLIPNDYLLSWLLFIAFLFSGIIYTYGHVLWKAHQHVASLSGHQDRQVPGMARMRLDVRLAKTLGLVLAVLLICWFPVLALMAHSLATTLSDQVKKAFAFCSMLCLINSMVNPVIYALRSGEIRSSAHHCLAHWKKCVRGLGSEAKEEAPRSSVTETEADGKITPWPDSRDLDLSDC
Protocol: (§1) IX. Assay for Determining Agonist and Antagonist Activity to CB1 and CB2 Receptors
2. Agonism of CB1/CB2 Receptors Expressed in CHO Cells
h-CB1/CHO or h-CB2/CHO cells were grown in HAM's F12 DMEM medium (Sigma) with 10% FBS (Hyclone), 1% penicillin-streptomycin solution and 400 μg/ml of G418 (Sigma). 5000 cells were seeded per well in a 96 well plate and incubated for 24 hours at 37° C. in 5% CO2. On the day of assay, cells were washed with warm Krebs Buffer containing 0.1% fatty acid free (FAF) BSA (Sigma) and re-suspended in the same buffer containing 1 mM IBMX. Test compound or CP 55,940 as a reference compound (30 nM final concentration for CB1 testing and 10 μM of the same for CB2 testing) diluted in FFB+IBMX+Krebs buffer was added to the cells followed by forskolin addition (10 uM final concentration) and incubated for 30 minutes at room temperature. At the end of incubation, cells were lysed using lysis reagent from the cAMP estimation kit and cAMP was quantitated by chemiluminescence method described in the manufacturer's instructions (DiscoveRX). EC50 values were calculated from dose response curves by nonlinear regression analysis using PRISM software.

[3] = molecular target: T2, hCB2; assay: In vitro binding assay using hCB2-CHO membranes, [3H]-CP-55,940 displacement (Protocol IV); parameters: expressed in transfected cells; host or cells: CHO (hCB2-CHO, generated in-house); details: for % Displacement Protocol IV: hCB2-CHO membranes, [3H]-CP-55,940 displacement
In short: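 Displacement of [3H]-CP-55,940 (0.75 nM) from membranes of CHO cells expressing human CB2 (25-50 μg) was measured in Tris-BSA buffer pH 7.4 with 5 mM MgCl2, 1 mM EDTA, 0.1% BSA, 1 h at 30 °C. Test compounds were at 300 nM final; nonspecific binding defined with 0.5 μM CP-55,940. Values are % displacement of specific binding.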

[4] = molecular target: T1, CB1; assay: GTPγS binding assay, CB1 functional assay in rat cerebellar membrane (Protocol VIII); assay type: biochemical; parameters: 10 μg rat cerebellum membrane; from tissue; host or cells: rat cerebellum membrane, prepared in-house; details: for activation at 1 µM: 1 h, read-out: Per Se % Stimulation; for activation at 1 µM / Per Se % Stimulation: GTPγS binding over basal, rat cerebellar membrane, tested at 1 uM; for inhibition at 1 µM / % Inhibition of WIN-55212-2 induced stimulation: GTPγS binding, tested at 1 uM in presence of 1 μM WIN 55,212-2; for inhibition at 1 µM: read-out: % Inhibition of WIN-55212-2 induced stimulation
In short: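 Rat cerebellar membranes (10 μg) incubated 1 h at 30 °C with 0.2 nM [35S]GTPγS, 50 μM GDP, and compound at 1 μM or 300 nM, alone or with 1 μM WIN 55,212-2, in Tris/MgCl2/EGTA/NaCl pH 7.4. Filter-bound radioactivity counted; percent stimulation calculated against basal specific binding (nonspecific defined by 10 μM GTPγS).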

[5] = molecular target: T3, hCB1 (Homo sapiens, UniProt P21554); assay: Antagonism of CB1 receptors expressed in CHO cells, cAMP assay against CP 55,940 (Protocol IX.1); assay type: cell-based; parameters: expressed in transfected cells; host or cells: CHO (h-CB1/CHO, G418-selected); details: h-CB1/CHO cells, cAMP, vs 30 nM CP 55,940; for inhibition at 10 µM: read-out: hCB1 Antagonism
T3 sequence (P21554 whole entry): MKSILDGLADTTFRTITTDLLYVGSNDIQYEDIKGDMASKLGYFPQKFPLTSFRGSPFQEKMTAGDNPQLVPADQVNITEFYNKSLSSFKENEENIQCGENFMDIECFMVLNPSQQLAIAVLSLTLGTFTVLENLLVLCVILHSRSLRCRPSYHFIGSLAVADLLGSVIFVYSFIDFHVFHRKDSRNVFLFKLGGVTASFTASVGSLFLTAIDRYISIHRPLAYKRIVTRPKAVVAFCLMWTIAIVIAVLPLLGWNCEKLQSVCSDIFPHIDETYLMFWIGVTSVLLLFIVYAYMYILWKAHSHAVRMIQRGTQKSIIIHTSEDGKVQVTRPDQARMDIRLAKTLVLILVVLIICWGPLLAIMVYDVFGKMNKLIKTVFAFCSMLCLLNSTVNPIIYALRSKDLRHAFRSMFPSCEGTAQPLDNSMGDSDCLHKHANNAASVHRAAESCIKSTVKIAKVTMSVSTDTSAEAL
Protocol: as §1
1. Antagonism of CB1/CB2 Receptors Expressed in CHO Cells.
h-CB1/CHO or h-CB2/CHO cells were grown in HAM's F12 DMEM medium (Sigma) with 10% FBS (Hyclone), 1% penicillin-streptomycin solution and 400 μg/ml of G418 (Sigma). 5000 cells were seeded per well in a 96 well plate and incubated for 24 hours at 37° C. in 5% CO2. On the day of assay, cells were washed with warm Krebs buffer containing 0.1% fatty acid free (FAF) BSA (Sigma) and re-suspended in the same buffer containing 1 mM IBMX. […] At the end of incubation, cells were lysed using lysis reagent from the cAMP estimation kit and cAMP was quantitated by the chemiluminescence method described in the manufacturer's instructions (DiscoveRX). EC50 values were calculated from dose response curves by nonlinear regression analysis using PRISM software.

[6] = molecular target: T3, hCB1; assay: In vitro binding assay using hCB1-CHO membranes, [3H]-CP-55,940 displacement (Protocol II); parameters: expressed in transfected cells; host or cells: CHO (hCB1-CHO, generated in-house)
Protocol: II. Protocol for In Vitro Assay Using hCB1-CHO Membranes
The reaction was set up in a total volume of 200 μl in PEI (Poly(ethyleneimine)) (0.2%) precoated Millipore GFB (Glass Fibre-B) filter plates. 1 mM stocks of test compounds were prepared in DMSO and tested at a final concentration of 300 nM. The non-specific binding was determined by 0.5 μM CP-55, 940. […] The assay mixture (with or without the test compound) was incubated at 37° C. for 1 hour. The reaction was stopped by rapid filtration under vacuum and the radioactivity on the filters was measured by liquid scintillation counting.

[7] = read-out: % Displacement Protocol I, rat brain membrane, [3H]SR141716A displacement
[8] = rat brain membrane, [3H]SR141716A displacement
[9] = rat brain membrane, [3H]SR141716A displacement, read-out: % Displacement Protocol I

SMILES | melting point [°C] | % Displacement Protocol IV [3] [%] | % Displacement Protocol II [6] [%] | inhibition at 10 µM ([5]; at 10 uM) [%] | Per Se % Stimulation [4] [%] | % Inhibition of WIN-55212-2 induced stimulation [4] [%] | % Displacement Protocol I [1, 8] [%] | inhibition [1, 9] [%] | other results
O=C(NC1CCCCC1)c1nn(-c2ccc(Cl)cc2)c2c1C1CC3CC(C1)CC2C3 [Example 106, N(7)-Cyclohexyl-5-(4-chlorophenyl)-5,6-diazatetracyclo[7.3.1.1^3,11.0^4,8]tetradeca-4(8),6-diene-7-carboxamide] | 162 | – | – | – | – | – | – | – | inhibition [1, 7]: 78.6%; hCB2 Agonism ([2]; concentration not given): 0%; inhibition at 0.3 µM ([3]; 1 h, read-out: % Displacement Protocol IV): 75.1%; activation at 1 µM [4]: -10%; inhibition at 1 µM [4]: 65.3%
O=C(NC12CC3CC(CC(C3)C1)C2)c1nn(-c2ccc(Cl)cc2)c2c1C1CC3CC(C1)CC2C3 [Example 109, N(7)-(Adamantan-1-yl)-5-(4-chlorophenyl)-5,6-diazatetracyclo[7.3.1.1^3,11.0^4,8]tetradeca-4(8)-6-diene-7-carboxamide] | – | 63.05 | 8.36 | – | – | – | – | – | hCB1 Antagonism ([5]; at 10 uM): 61.64% at
Cl.O=C(NNc1ccccc1)c1nn(-c2ccc(Cl)cc2)c2c1C1CC3CC(C1)CC2C3 [Example 122, N(7)-(N′-phenylamino)-5-(4-chlorophenyl)-5,6-diazatetracyclo[7.3.1.1^3,11.0^4,8]tetradeca-4(8),6-diene-7-carboxamide hydrochloride] | – | – | – | 40.7 | 1.2 | 59.3 | – | – | inhibition [1, 7]: 66.4%
O=C(NCc1ccccc1)c1nn(-c2ccccc2)c2c1C1CC3CC(C1)CC2C3 [Example 170, N(7)-Benzyl-5-phenyl-5,6-diazatetracyclo[7.3.1.1^3,11.0^4,8]tetradeca-4(8)-6-diene-7-carboxamide] | – | 27.16 | 29.49 | – | 17.5 | 80.3 | 40.0 | – | –
O=C(NCc1ccccc1)c1nn(-c2ccc(Cl)cc2Cl)c2c1C1CC3CC(C1)CC2C3 [Example 179, N(7)-Benzyl-5-(2′,4′-dichlorophenyl)-5,6-diazatetracyclo[7.3.1.1^3,11.0^4,8]tetradeca-4(8)-6-diene-7-carboxamide] | – | 18.21 | 30.88 | – | 7.8 | 89.7 | 48 | – | –
O=C(NC1CCCCC1)c1nn(-c2ccccc2Cl)c2c1C1CC3CC(C1)CC2C3 [Example 183, N(7)-cyclohexyl-5-(2-chlorophenyl)-5,6-diazatetracyclo[7.3.1.1^3,11.0^4,8]tetradeca-4(8)-6-diene-7-carboxamide] | – | 18.23 | 17.24 | – | 13.0 | 72.5 | 45.9 | – | –
O=C(NN1CCCCC1)c1nn(-c2ccccc2Cl)c2c1C1CC3CC(C1)CC2C3 [Example 184, N(7)-piperidino-5-(2′-chlorophenyl)-5,6-diazatetracyclo[7.3.1.1^3,11.0^4,8]tetradeca-4(8)-6-diene-7-carboxamide] | – | 8.76 | 3.24 | – | 9.5 | 75.9 | 41 | – | –
O=C(NC1CCCC1)c1nn(-c2ccc(Cl)cc2)c2c1C1CCC2C1 (stereo not drawn) [Example 212, N(3)-Cyclopentyl-1-(4-chlorophenyl)-4,5,6,7-tetrahydro-1H-4,7-methano-indazole-3-carboxamide] | 176 to 178 | – | – | 39.1 | – | – | – | – | inhibition [1, 7]: 68.4%; activation at 1 µM [4]: -13.8%; inhibition at 1 µM [4]: 97.4%
CC(C)(C)c1ccc(NC(=O)c2nn(-c3ccc(Cl)cc3)c3c2C2CCC3C2)cc1 (stereo not drawn) [Example 219, N(3)-(4-tert-Butylphenyl)-1-(4-chlorophenyl)-4,5,6,7-tetrahydro-1H-4,7-methano-indazole-3-carboxamide] | 76 to 78 | – | – | 33.4 | – | – | – | 33.7 | –
O=C(NCc1ccc(F)cc1)c1nn(-c2ccc(Cl)cc2)c2c1C1CCC2C1 (stereo not drawn) [Example 226, N(3)-(4-Fluorobenzyl)-1-(4-chlorophenyl)-4,5,6,7-tetrahydro-1H-4,7-methano-indazole-3-carboxamide] | 104 to 107 | – | – | 71 | – | – | – | 38.4 | –
O=C(NNc1ccc(F)cc1F)c1nn(-c2ccc(Cl)cc2)c2c1C1CCC2C1 (stereo not drawn) [Example 235, N(3)-[(2,4-Difluorophenyl)amino]-1-(4-chlorophenyl)-4,5,6,7-tetrahydro-1H-4,7-methano-indazole-3-carboxamide] | 118 to 120 | – | – | 59.9 | – | – | – | 46.8 | –
O=C(NN1CCCCC1)c1nn(-c2ccc(Cl)cc2Cl)c2c1C1CCC2C1 (stereo not drawn) [Example 268, N(5)-piperidino-3-(2′,4′-dichlorophenyl)-3,4-diazatricyclo[5.2.1.0^2,6]deca-2(6),4-diene-5-carboxamide] | – | – | – | – | – | – | – | 41 | inhibition at 1 µM ([5]; at 1 uM): 50.9%; activation at 1 µM [4]: 29.1%; inhibition at 1 µM [4]: 55.3%
CC(C)(C)NC(=O)c1nn(-c2ccc(F)cc2F)c2c1C1CCC2(C)C1(C)C (stereo not drawn) [Example 408, N(3)-tert-Butyl-1-(2,4-difluorophenyl)-7,8,8-trim ethyl-4,5,6,7-tetrahydro-1H-methano-indazole-3-carboxamide] | – | 61.92 | 24.93 | – | – | – | – | – | IC50 ([2]; h-CB2/CHO cells, cAMP, read-out: hCB2 Agonism IC50): 16.1 nM
